PMC11169864, “Application of cysteinyl prolyl ester for the synthesis of cyclic peptides containing an RGD sequence and their biological activity measurement” (Frontiers in Chemistry, 2024)
Non-standard residues stand in square brackets, D forms with d.

Test system: αvβ6 integrin
Assay: Integrin inhibition assay (ELISA): inhibition of αvβ6 integrin binding to LAP (TGF-β1)
Design: species or system human
Settings: 1 µM peptide preincubated 1 h at room temperature with 10 nM integrin αvβ6, 1.0 mM Mn2+, plate coated with 10 nM LAP (TGF-β1), absorbance at 490 nm, mean ± standard error, N = 3, numbers only in Figure 8, text gives comparisons in words
Excerpt: Among the RGD-binding integrins, we selected αvβ6 integrin for measurement of the inhibition activity of the cyclic peptides. The αvβ6 integrin is reported to recognize the sequence beyond the RGD motif, RGDLXXL ([Dong et al., 2014]). Therefore, the inhibition activity of the cyclic peptides is expected to vary depending on the configuration and the modification at the CPC moiety. In addition, the inhibitor of the αvβ6 integrin is still under development ([John et al., 2020]), while an efficient inhibitor, cilengitide, exists for the αvβ3 and αvβ5 integrins ([Stupp and Ruegg, 2007]). […] The inhibitory activity of the commonly used RGD tripeptide was also measured as a control. […]
The integrin inhibition assay was performed as follows. […] The bound αvβ6 integrin was detected by the biotinylated anti-Velcro polyclonal antibody and horseradish peroxidase-conjugated streptavidin. […] The bound antibody was detected by horseradish peroxidase-conjugated streptavidin (0.53 μg/mL), followed by colorimetrically measuring the amount of bound αvβ6 integrin using o-phenylenediamine (0.4 mg/mL; FUJIFILM Wako) and H2O2 (0.006%) in a 25 mM citric acid/50 mM Na2HPO4 buffer. The colorimetric reaction was stopped with 100 μL of 2.5 M H2SO4, and the absorbance of the chromogenic substrate was measured at 490 nm using a microplate reader (Molecular Devices EMax). […]

Row | Inhibitory activity for binding of the αvβ6 integrin with LAP (TGF-β1) | Substance
1 | stronger than 3c and 3d | cyclo(CRGDC[dP]) (cysteine pairing not given here) [3a]
2 | stronger than 3c and 3d | cyclo([dC]RGDC[dP]) (cysteine pairing not given here) [3b]
